Results taken from patent publication US7537906B2, “Apoptosis inducer and method of screening for a substance inhibiting acylated homoserine lactone” (priority 2003, dated 2009).

Columns and labels:
Akt = Akt activity by Western blot in porcine vascular endothelial cells (PECs); format: cell-based; details: 100 μM, 10 minutes
Description: Porcine vascular endothelial cells (PECs) were cultured at 37° C. in the presence of 5% CO2 using a DMEM medium containing 10% FCS, 1% NEAA and 1% P/S (100 units/ml penicillin and 100 μg/ml streptomycin).
6×10^5 PECs were inoculated per dish using 6 cm dishes (NUNC), washed twice with phosphate buffered saline (PBS) (-), and then cultured for 24 hours in a serum-free DMEM medium containing 1% NEAA. Subsequently, at a final concentration of 100 μM, homoserine lactone hydrochloride, N-butyryl-L-homoserine lactone, N-(3-oxohexanoyl)-L-homoserine lactone and N-(3-oxododecanoyl)-L-homoserine lactone were each added, and then each solution was allowed to react for 10 minutes. Similarly to (1), the effect of acylated homoserine lactone on Akt activity in PECs were examined by Western blotting.

p38 = assay: MAP kinase activity by Western blot in CaCo-2 cells: phosphorylated p38; format: cell-based, human
Description: (§1) A CaCo-2 carcinoma cell line of human colon cancer was purchased from American Type Culture Collection (ATCC), and cultured at 37° C. in the presence of 5% CO2 using a DMEM medium containing 10% FCS, 1% NEAA and 1% P/S (100 units/ml penicillin and 100 μg/ml streptomycin).
6×10^5 CaCo-2 cells were inoculated per dish using 6 cm dishes (NUNC), washed twice with phosphate buffered saline (PBS) (-), and then cultured in a serum-free DMEM medium containing 1% NEAA for 24 hours. Subsequently, at a final concentration of 100 μM, homoserine lactone hydrochloride and N-(3-oxododecanoyl)-L-homoserine lactone were each added, and then each solution was allowed to react for 10 minutes. Furthermore, purified acylated homoserine lactone used herein had been dissolved in DMSO in a concentration 400 times higher than the target final concentration, and then subjected to filter sterilization (φ 0.22 μm). As a control, DMSO with a final concentration of 0.25% was used. In addition, α-tubulin was used as an internal standard.
After reaction, the product was washed twice with cold PBS (-), and then frozen at −80° C. The cells were thawed on ice. 200 μl of a lysis buffer (50 mM HEPES, pH 7.5, 50 mM NaCl, 1 mM EDTA, 1.5 mM MgCl2, 1% Triton X-100, 10% glycerin, 10 mM sodium pyrophosphate, 1 mM Na3VO4, 100 mM NaF, 1 mM PMSF, 10 μg/ml aprotinin and 10 μg/ml leupeptin) was added to the cells, and then the cells were scraped off using a scraper. The cells were allowed to stand on ice for 20 minutes, and then centrifuged at 14000 rpm at 4° C. for 15 minutes, thereby collecting the supernatant. Concentration of the collected protein was measured, and then the protein equivalent to 50 μg was subjected to SDS-PAGE. After electrophoresis, the product was blotted on a PVDF membrane. When phosphorylated ERK, JNK, p38 and Akt were measured, blocking was carried out with 0.1% Tween 20 (TBS-T) containing 5% skim milk/Tris-buffered saline. As primary antibodies, an anti-phospho-p44/42 MAP kinase antibody, an anti-phospho-SAPK/JNK antibody, an anti-phospho-p38 MAP kinase antibody, and an anti-phospho-Akt ([…]) antibody were each used. As a secondary antibody, an HRP-labeled anti-rabbit IgG antibody was used. For the α-tubulin used as an internal standard, blocking was carried out with 5% bovine serum albumin (BSA)/TBS-T, and an anti-α-tubulin (Ab-1) antibody and an HRP-labeled anti-mouse IgG antibody were used as a primary antibody and a secondary antibody, respectively. For band detection, Renaissance™ Western Blot Chemiluminescence […] Reagent Plus (NEN) or Western Blotting Luminol Reagent (SANTA CRUZ BIOTECHNOLOGY) was used.
(§2) After cell culture, MAP kinase activity and Akt activity were analyzed by Western blot in a manner similar to that used in (1), except that N-(3-oxododecanoyl)-L-homoserine lactones in final concentrations of 0 μM (0.25% DMSO), 1 μM, 10 μM, 30 μM and 100 μM were each added and each solution was allowed to react for 10 minutes (FIG. 8).
After cell culture, N-(3-oxododecanoyl)-L-homoserine lactone with final concentrations of 30 μM and 100 μM were added. For each case, MAP kinase activity and Akt activity were measured by Western blot in a manner similar to that in (1), except for carrying out stimulation with acylated homoserine lactone in a short time course of 0, 5, 10, 30 and 60 minutes (FIG. 11), and in a long time course of 0, 10 minutes, 60 minutes, 2 hours, 4 hours, 6 hours, 8 hours and 10 hours (FIG. 12). In the case of stimulation at 30 μM, both ERK and p38 activities increased with a peak at 10 minutes. However, while ERK activity returned to the base level within 30 minutes, p38 activity lasted until 4 hours after stimulation. The inhibition of Akt activity in the case of stimulation at 30 μM peaked at 5 minutes and lasted until 60 minutes after stimulation, and returned to the base level within 2 hours. ERK activation took place with two steps in the case of stimulation at 100 μM. […]

JNK = assay: MAP kinase activity by Western blot in CaCo-2 cells: phosphorylated JNK; format: cell-based, human; details: 10 minutes
Description: as §1
6×10^5 CaCo-2 cells were inoculated per dish using 6 cm dishes (NUNC), washed twice with phosphate buffered saline (PBS) (-), and then cultured in a serum-free DMEM medium containing 1% NEAA for 24 hours. Subsequently, at a final concentration of 100 μM, homoserine lactone hydrochloride and N-(3-oxododecanoyl)-L-homoserine lactone were each added, and then each solution was allowed to react for 10 minutes. […]
After reaction, the product was washed twice with cold PBS (-), and then frozen at −80° C. […] Concentration of the collected protein was measured, and then the protein equivalent to 50 μg was subjected to SDS-PAGE. […] When phosphorylated ERK, JNK, p38 and Akt were measured, blocking was carried out with 0.1% Tween 20 (TBS-T) containing 5% skim milk/Tris-buffered saline. […]
as §2

caspase-3 = assay: Caspase activity by Western blot (cleaved caspase-3) in CaCo-2 cells; format: cell-based, human
Description: (§3) The activities of caspase (caspase-3 and caspase-9) and PARP (poly-ADP ribose polymerase) were measured in a manner similar to those in Examples 1 and 2 by Western blot analysis using each of anti-activated (cleaved) caspase antibodies, that is, an anti-cleaved caspase-3 antibody, an anti-cleaved caspase-9 antibody (D330) and an anti-cleaved PARP antibody (D214).
(§4) N-(3-oxododecanoyl)-L-homoserine lactones with final concentrations of 30 μM and 100 μM were each added to cultured CaCo-2 cells. Caspase-3, caspase-9 and PARP activities were analyzed over time by Western blot at 0 hours, 1 hour, 2 hours, 4 hours, 6 hours, 8 hours and 10 hours after culture. […] Whereas at 30 μM, activated caspase-3 began to be detected 1 hour after stimulation and the activity lasted until 4 hours after stimulation, at 100 μM the activity peaked at 6 hours and lasted until 10 hours after stimulation. Cleaved caspase-9 and cleaved PARP were detected by reprobing each membrane.
(§5) Next, 3 hours of reaction with N-(3-oxododecanoyl)-L-homoserine lactone was carried out at concentrations of 0, 1, 10, 30, and 100 μM, and then caspase and PARP activities were measured.

caspase-9 = assay: Caspase activity by Western blot (cleaved caspase-9) in CaCo-2 cells; format: cell-based, human
Description: as §3, §4, §5

[1] = 3 hours of reaction, 0, 1, 10, 30 and 100 μM

For CCCCCCCCCC(=O)CC(=O)N[C@H]1CCOC1=O [N-(3-oxododecanoyl)-L-homoserine lactone], the “Akt activity in PECs” value (Akt) was “significantly decreases”, the p38 activity increase (p38; 10 μM, 10 minutes) was 3.2 times and the p38 activity increase (p38; 30 μM, 10 minutes) was 4.4 times. The “activation of p38” value (p38; 100 μM, 10 minutes) was “promoted”, the p38 activity increase (p38; 100 μM, 10 minutes) was 5.4 times and the “concentration at which levels of phosphorylated p38 significantly increased” value (p38; 10 minutes) was at least 10 µM. For the same compound, the “p38 activity lasted until (after stimulation)” value (p38; stimulation at 30 μM) was 4 h, the “time of peak p38 activity” value (p38; stimulation at 30 μM) was 10 min and the “p38 activity lasted until (after stimulation)” value (p38; stimulation at 100 μM) was 8 h. For the same compound, the “time of peak p38 activation” value (p38; stimulation at 100 μM) was 5 min, the “JNK activity, concentration dependence” value (JNK; 0-100 μM) was “no concentration-dependent significant difference” and the “activation of JNK” value (JNK; 100 μM) was “promoted”. The “caspase-3 activity lasted until (after stimulation)” value (caspase-3; 30 μM) was 4 h, the “time at which activated caspase-3 began to be detected after stimulation” value (caspase-3; 30 μM) was 1 h and the “caspase-3 activity lasted until (after stimulation)” value (caspase-3; 100 μM) was 10 h. The “time of peak caspase-3 activity” value (caspase-3; 100 μM) was 6 h, the “concentration at which cleaved caspase (caspase-3) was detected” value (caspase-3; [1]) was at least 30 µM and the “caspase-9 activity over time” value (caspase-9; 30 μM) was “strong at 1, 2 and 4 hours”. The “weak caspase-9 activity lasted until (after stimulation)” value (caspase-9; 30 μM) was 8 h, the “strong caspase-9 activity lasted until (after stimulation)” value (caspase-9; 100 μM) was 8 h and the “concentration at which cleaved caspase (caspase-9) was detected” value (caspase-9; [1]) was at least 30 µM.
